US6914045B2, “Glycopeptide antibiotics” (Wyeth Holdings Corporation, priority 2001, dated 2005)
In brackets after ≈: the same amount, converted by molar mass.

Key:
[1] = anatomic pathology (histopathology of heart and kidney) in mice; format: in vivo; conditions: CD-1 mice, 20 mg/kg intravenously daily for 9 days, necropsy day 10, microscopic histopathology
Method: Samples of tissues from necropsied mice were formalin-fixed, paraffin-embedded, sectioned, stained with hematoxylin and eosin, and examined microscopically. Histopathologic findings were recorded. These findings were subjectively graded on a scale corresponding to slight, mild, moderate, marked and severe as compared to untreated controls.

Staphylococcus sp. = experiment: in vitro antibacterial evaluation, MIC by broth dilution; format: cell-based; conditions: broth dilution, 18 hours at 35° C.
How it was run: (§1)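 MIC = lowest antibiotic concentration preventing visible growth; inoculum 5×10^5 CFU/mL; drug range 64-0.06 μg/mL; Muller-Hinton II […]; NCCLS M7-A2 guidance.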

Streptococcus sp. = experiment: as above; format: cell-based; conditions: broth dilution, 18 hours at 35° C.
How it was run: as §1

Enterococcus sp. = experiment: as above; format: cell-based; conditions: broth dilution, 18 hours at 35° C.
How it was run: as §1

[2] = clinical pathology (serum clinical chemistry) in mice; format: in vivo; conditions: CD-1 mice, 20 mg/kg intravenously daily for 9 days, sera day 10
Method: 20-day-old CD-1 mice were divided into a vehicle control group (5 mice) and a treatment group (5 mice). Samples of glycopeptide antibiotics were administered at 20 mg/kg intravenously daily for 9 days.

Escherichia coli = experiment: in vitro antibacterial evaluation, MIC by broth dilution; format: cell-based; conditions: 18 hours at 35° C.
How it was run: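 Broth dilution MIC per NCCLS M7-A2 in Mueller-Hinton II medium, inoculum 5×10^5 CFU/mL, antibiotic range 64-0.06 μg/mL. MIC taken as lowest concentration inhibiting growth.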

CC(c1ccccc1)C1NC(=O)CNC(=O)C(CO)NC(=O)C(C(O)C2CN(Cc3ccccc3-c3ccccc3)C(=N)N2C2OC(CO)C(O)C(O)C2O)NC(=O)C(C(O)C2CNC(=N)N2)NC(=O)C(Cc2ccc(OC3OC(CO)C(OC4OC(CO)C(O)C(O)C4O)C(O)C3O)cc2)NC1=O (centres unmarked) [Example 65]
Anatomical Pathology (Day 10), Heart [1]: 0 | Anatomical Pathology (Day 10), Kidney [1]: +++ | MIC Staphylococcus aureus (ATCC 29213) (Staphylococcus sp.; strain ATCC 29213): >128 µg/mL | MIC Staphylococcus aureus (GC 1131) (Staphylococcus sp.; strain GC 1131): >128 µg/mL | MIC Staphylococcus aureus (GC 3051) (Staphylococcus sp.; strain GC 3051): >128 µg/mL | MIC Staphylococcus aureus (GC 3053) (Staphylococcus sp.; strain GC 3053): >128 µg/mL | MIC Staphylococcus aureus (GC 4541) (Staphylococcus sp.; strain GC 4541): >128 µg/mL | MIC Staphylococcus aureus (GC 4542) (Staphylococcus sp.; strain GC 4542): >128 µg/mL | MIC Staphylococcus aureus-SMITH (GC 4543) (Staphylococcus sp.; strain GC 4543): >128 µg/mL | MIC Staphylococcus aureus (GC 4544) (Staphylococcus sp.; strain GC 4544): >128 µg/mL | MIC Staphylococcus aureus (GC 4545) (Staphylococcus sp.; strain GC 4545): >128 µg/mL | MIC Staphylococcus haemolyticus (GC 4546) (Staphylococcus sp.; strain GC 4546): >128 µg/mL | MIC Coagulase Negative Staphylococcus (GC 4547) (Staphylococcus sp.; strain GC 4547): >128 µg/mL | MIC Coagulase Negative Staphylococcus (GC 4548) (Staphylococcus sp.; strain GC 4548): >128 µg/mL | MIC Coagulase Negative Staphylococcus (GC 4549) (Staphylococcus sp.; strain GC 4549): >128 µg/mL | MIC Coagulase Negative Staphylococcus (GC 4551) (Staphylococcus sp.; strain GC 4551): >128 µg/mL | MIC Streptococcus agalactiae (GC 4564) (Streptococcus sp.): >128 µg/mL | MIC Streptococcus pneumoniae (ATCC 6301) (Streptococcus sp.): 128 µg/mL (≈ 87.6 µM) | MIC Streptococcus pneumoniae (GC 1894) (Streptococcus sp.): 128 µg/mL (≈ 87.6 µM) | MIC Streptococcus pneumoniae (GC 4565) (Streptococcus sp.): 128 µg/mL (≈ 87.6 µM) | MIC Streptococcus pyogenes (GC 4563) (Streptococcus sp.): 128 µg/mL (≈ 87.6 µM) | MIC Streptococcus pneumoniae (ATCC 6301) (Streptococcus sp.; strain ATCC 6301): 128 µg/mL (≈ 87.6 µM) | MIC Streptococcus pneumoniae (GC 1894) (Streptococcus sp.; strain GC 1894): 128 µg/mL (≈ 87.6 µM) | MIC Streptococcus pyogenes (GC 4563) (Streptococcus sp.; strain GC 4563): 128 µg/mL (≈ 87.6 µM) | MIC Streptococcus agalactiae (GC 4564) (Streptococcus sp.; strain GC 4564): >128 µg/mL | MIC Streptococcus pneumoniae (GC 4565) (Streptococcus sp.; strain GC 4565): 128 µg/mL (≈ 87.6 µM) | MIC Enterococcus avium (GC 4558) (Enterococcus sp.; Enterococcus avium (GC 4558)): 128 µg/mL (≈ 87.6 µM) | MIC Enterococcus faecalis (ATCC 29212) (Enterococcus sp.; Enterococcus faecalis (ATCC 29212)): >128 µg/mL | MIC Enterococcus faecalis (GC 4552) (Enterococcus sp.; Enterococcus faecalis (GC 4552)): >128 µg/mL | MIC Enterococcus faecalis (GC 4553) (Enterococcus sp.; Enterococcus faecalis (GC 4553)): 128 µg/mL (≈ 87.6 µM) | MIC Enterococcus faecalis (GC 4554) (Enterococcus sp.; Enterococcus faecalis (GC 4554)): >128 µg/mL | MIC Enterococcus faecalis (GC 6189) (Enterococcus sp.; Enterococcus faecalis (GC 6189)): >128 µg/mL | MIC Enterococcus faecium (GC 2243) (Enterococcus sp.; Enterococcus faecium (GC 2243)): 128 µg/mL (≈ 87.6 µM) | MIC Enterococcus faecium (GC 4556) (Enterococcus sp.; Enterococcus faecium (GC 4556)): >128 µg/mL | MIC Enterococcus faecium (GC 4557) (Enterococcus sp.; Enterococcus faecium (GC 4557)): 128 µg/mL (≈ 87.6 µM) | MIC Enterococcus avium (GC 4558) (Enterococcus sp.): 128 µg/mL (≈ 87.6 µM) | MIC Enterococcus faecalis (ATCC 29212) (Enterococcus sp.): >128 µg/mL | MIC Enterococcus faecalis (GC 2242) (Enterococcus sp.): >128 µg/mL | MIC Enterococcus faecalis (GC 2691) (Enterococcus sp.): >128 µg/mL | MIC Enterococcus faecalis (GC 3059) (Enterococcus sp.): >128 µg/mL | MIC Enterococcus faecalis (GC 4552) (Enterococcus sp.): >128 µg/mL | MIC Enterococcus faecalis (GC 4553) (Enterococcus sp.): 128 µg/mL (≈ 87.6 µM) | MIC Enterococcus faecalis (GC 4554) (Enterococcus sp.): >128 µg/mL | MIC Enterococcus faecalis (GC 6189) (Enterococcus sp.): >128 µg/mL | MIC Enterococcus faecium (GC 2243) (Enterococcus sp.): 128 µg/mL (≈ 87.6 µM) | MIC Enterococcus faecium (GC 4556) (Enterococcus sp.): >128 µg/mL | MIC Enterococcus faecium (GC 4557) (Enterococcus sp.): 128 µg/mL (≈ 87.6 µM) | MIC Enterococcus faecalis (GC 2242) (Enterococcus sp.; strain GC 2242): >128 µg/mL | MIC Enterococcus faecalis (GC 2691) (Enterococcus sp.; strain GC 2691): >128 µg/mL | MIC Enterococcus faecalis (GC 3059) (Enterococcus sp.; strain GC 3059): >128 µg/mL | Clinical Chemistry (Day 10) % of Control, ALT [2]: +196% | Clinical Chemistry (Day 10) % of Control, AST [2]: +182% | Clinical Chemistry (Day 10) % of Control, BUN [2]: +161% | MIC Escherichia coli (ATCC 25922) (Escherichia coli): >128 µg/mL | MIC Escherichia coli (GC 4559) (Escherichia coli): >128 µg/mL | MIC Escherichia coli (GC 4560) (Escherichia coli): 32 µg/mL (≈ 21.9 µM)
